This is an account of results in US5980939A, “Cyclosporin-containing pharmaceutical composition” (Chong Kun Dang Corp., priority 1996, dated 1999).

For data set [1] the following is noted: species and route not given; cited from earlier work.
Data set [2] is described as follows: Experiment 3: permeability of hydrophilic cosurfactant to the gelatin shell, content in soft capsule in course of time. Format: physicochemical. Conditions: for Change of the content of hydrophilic cosurfactant: solvent:Cremophor RH40 3:7 in soft capsule. The source says: Propylene glycol which contains --OH group in its molecular structure and therefore has high hygroscopic and hydrophilic properties is distributed in the capsule shell according to the movement of water present in the contents and gelatin capsule during encapsulation and drying procedures and therefore, is permeated to the capsule shell in course of time. According to this, since the constitutional ratio of the contents is greately varied at the early stage, of manufacturing procedures of the capsule preparation, the stability of the preparation cannot be ensured and further the reliable therapeutic effect cannot be obtained. […] Hereinafter, the permeability to the gelatin shell of the hydrophilic cosurfactant used in the soft capsule according to the present invention was determined and compared with the shell permeability of propylene glycol, transcutol, glycofurol or dimethylisosorbide used as the hydrophilic cosurfactant in the soft capsule according to the prior art. The content of each solvent in each soft capsule preparation was analyzed by gas chromatography and HPLC. […] At regular intervals, the constant amount of the sample was taken and then analyzed.
Column: Ultra 2; Column temperature: 23° C.; Detector: FID; Detector temperature: 270° C.; Injection temperature: 275° C.; Carrier gas: He; Injection volume: 5 μl; Internal standard: octyl alcohol
Column: 10% PEG 20M; Column temperature: 160° C.; Detector: FID; Injection temperature: 200° C.; Carrier gas: N2; Injection volume: 1 μl; Internal standard: pentadecanoic acid methyl ester
Column: Ultra 2; Column temperature: 230° C.; Detector: FID; Detector temperature: 270° C.; Injection temperature: 270° C.; Carrier gas: He; Injection volume: 5 μl; Internal standard: pentadecanoic acid methyl ester

Another data set has as its system rat. The settings on record: per oral; cited from earlier work.
A short description of data set [3]: Experiment 1: reactivity of hydrophilic cosurfactant with the gelatin shell by thermoanalyzer (DSC/DDSC). The data set is classed as physicochemical. The settings on record: soft gelatin capsule filled with solvent, stored at room temperature, 3 months. As to the method:
Test for the reactivity of the hydrophilic cosurfactant according to the present invention with the gelatin shell in comparison to the reactivity of the solvents used in the prior art using a thermoanalyzer: The reactivities of the hydrophilic cosurfactant used according to the present invention and propylene glycol used as the hydrophilic cosurfactant in the prior preparation with the gelatin shell were determined using a thermoanalyzer. Each of the hydrophilic cosurfactants and mineral oil as the control solvent was filled in the soft gelatin capsule. The filled capsule was stored at room temperature. At regular intervals, the capsules were cut open by a sharp open blade, and the contents were removed by washing with ether and then about 20 mg of gelatin shell was accurately weighed and analyzed. The programed heating rate was 10° C./minute under nitrogen purge from 25 °C. to 300° C.

The next data set has as its system mouse. The settings on record: intravenous injection; cited from earlier work.

`CC1COC(=O)O1` (racemic) [Propylene carbonate, (±)-4-methyl-1,3-dioxolan-2-one]: in data set [1], the LD50 is 29000 mg/kg. The “stability of the cosurfactant content in soft capsule (in words)” value in data set [2] is “at least comparable stability to dimethylisosorbide and is more stable than propylene glycol, transcutol and glycofurol”. The “Change of the content of hydrophilic cosurfactant” value (“Change” below) in data set [2] (day 0) is on record as 30.1 wt %; in data set [2] (day 5), 29.8 wt %; in data set [2] (day 15), 28.6 wt %; in data set [2] (day 30), 28.4 wt %; in data set [2] (day 60) it was 28.7 wt %; in data set [2] (day 90) it was 27.4 wt %. For the same compound, the “Change” value in data set [2] (day 120) came to 28.0 wt %.

Regarding `CCOCCOCCO` [Transcutol, diethyleneglycol monoethyl ether], the “Change” value in data set [2] (day 0) is on record as 30.1 wt %; in data set [2] (day 5), 22.1 wt %; in data set [2] (day 15) it was 23.1 wt %; in data set [2] (day 30), 21.9 wt %; in data set [2] (day 60), 22.1 wt %; in data set [2] (day 90), 21.7 wt %. Further, in data set [2] (day 120), the “Change” value was determined as 20.3 wt %.

Turning to `CC(C)O` [isopropanol], in the data set on rat, the LD50 is 5800 mg/kg.

As for `CC(O)CO` (stereo not drawn) [Propylene glycol, 1,2-propylene glycol], in the data set on rat, the LD50 is 21000 to 33700 mg/kg. Also, the “DSC/DDSC pattern of gelatin shell versus shell of capsule filled with mineral oil” value in data set [3] is listed as “shows a new peak”. In addition, the “Change” value came out at 29.9 wt % in data set [2] (day 0); 21.9 wt % in data set [2] (day 5); 22.8 wt % in data set [2] (day 15); 21.0 wt % in data set [2] (day 30); 22.4 wt % in data set [2] (day 60); 21.5 wt % in data set [2] (day 90). The “Change” value in data set [2] (day 120) is given as 19.5 wt %.

For the compound “tetrahydrofurfurylalcohol polyethylene glycol [Glycofurol]”, in the data set with mouse, the LD50 is 3.5 mL/kg. Moreover, the “Change” value is 30.0 wt % in data set [2] (day 0); 24.4 wt % in data set [2] (day 5); 21.0 wt % in data set [2] (day 15); 23.5 wt % in data set [2] (day 30); 21.0 wt % in data set [2] (day 60); 20.7 wt % in data set [2] (day 90). The “Change” value in data set [2] (day 120) is on record as 20.4 wt %.

Regarding `c1ccccc1` [benzene], the LD50 in the data set with rat was 3.8 mL/kg.

`CC#N` [acetonitrile]: in the data set on rat, the LD50 was 3800 mg/kg.

In the case of `CC(C)=O` [acetone], in the data set with rat, the LD50 is 10.7 mL/kg.

Take `CO[C@H]1CO[C@H]2[C@@H]1OC[C@H]2OC` [Dimethylisosorbide, 1,4:3,6-dianhydro-2,5-dimethyl-D-glucitol]: the LD50 in the data set with rat is 5.63 mL/kg. Besides, the “Change” value in data set [2] (day 0) was found to be 30.0 wt %; in data set [2] (day 5), 28.2 wt %; in data set [2] (day 15), 29.1 wt %; in data set [2] (day 30), 28.7 wt %; in data set [2] (day 60), 28.0 wt %; in data set [2] (day 90) it was 26.6 wt %. Further, the “Change” value in data set [2] (day 120) is 25.8 wt %.
